PubChem BioAssay AID1963854 (Molecular Pharmacology Branch, DTP, NCI, 2024)

Test system: 186277-243-T-J2-PDC complex spheroid viability
Assay: Anticancer human tumor 186277-243-T-J2-PDC patient-derived colon adenocarcinoma cell line growth inhibition [POLQ]
Conditions: for IC50: curve of first compound; for viability, T/C: stronger effect = lower value
Method in brief: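 PDC + HUVEC + MSC complex spheroids; POLQ inhibitors ± partner drugs; top conc. at/near clinical Cmax, else 10 microM (SN-38 1 microM), half-log dilutions; 37 degrees C, 5% CO2.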
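Further: spheroids exposed to compounds for seven days.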
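Wherever viability, T/C is given: 100% = DMSO vehicle control viability.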

CC(=O)O[C@H]1C(=O)[C@@]2(C)[C@H]([C@H](OC(=O)c3ccccc3)[C@]3(O)C[C@H](OC(=O)[C@H](O)[C@@H](NC(=O)c4ccccc4)c4ccccc4)C(C)=C1C3(C)C)[C@]1(OC(C)=O)CO[C@@H]1C[C@@H]2O + Nc1ccc(C#CCN(C(=O)Cc2ncc(C(F)(F)F)cc2C(F)(F)F)c2ccc(F)cc2)nn1
IC50 (second compound 0.0316 µM): < 9.49 nM | IC50 (second compound 0.1 µM): < 9.49 nM | IC50 (second compound 0.316 µM): < 9.49 nM | IC50 (second compound 1 µM): < 9.49 nM | IC50 (second compound 3.16 µM): < 9.49 nM | IC50 (second compound 10 µM): < 9.49 nM | viability, T/C (second compound 0.0316 µM, first compound 0.00949 µM): 42.4% | viability, T/C (second compound 0.0316 µM, first compound 0.03 µM): 12.5% | viability, T/C (second compound 0.0316 µM, first compound 0.0949 µM): 7.75% | viability, T/C (second compound 0.0316 µM, first compound 0.3 µM): 6.21% | viability, T/C (second compound 0.0316 µM, first compound 0.949 µM): 5.52% | viability, T/C (second compound 0.0316 µM, first compound 3 µM): 8.14% | viability, T/C (second compound 0.1 µM, first compound 0.00949 µM): 41.4% | viability, T/C (second compound 0.1 µM, first compound 0.03 µM): 10.8% | viability, T/C (second compound 0.1 µM, first compound 0.0949 µM): 7.09% | viability, T/C (second compound 0.1 µM, first compound 0.3 µM): 5.96% | viability, T/C (second compound 0.1 µM, first compound 0.949 µM): 6.1% | viability, T/C (second compound 0.1 µM, first compound 3 µM): 5.64% | viability, T/C (second compound 0.316 µM, first compound 0.00949 µM): 41.7% | viability, T/C (second compound 0.316 µM, first compound 0.03 µM): 11.7% | viability, T/C (second compound 0.316 µM, first compound 0.0949 µM): 7.17% | viability, T/C (second compound 0.316 µM, first compound 0.3 µM): 6.38% | viability, T/C (second compound 0.316 µM, first compound 0.949 µM): 5.86% | viability, T/C (second compound 0.316 µM, first compound 3 µM): 6.59% | viability, T/C (second compound 1 µM, first compound 0.00949 µM): 36.1% | viability, T/C (second compound 1 µM, first compound 0.03 µM): 13.4% | viability, T/C (second compound 1 µM, first compound 0.0949 µM): 6.63% | viability, T/C (second compound 1 µM, first compound 0.3 µM): 5.56% | viability, T/C (second compound 1 µM, first compound 0.949 µM): 6.34% | viability, T/C (second compound 1 µM, first compound 3 µM): 5.24% | viability, T/C (second compound 3.16 µM, first compound 0.00949 µM): 28.4% | viability, T/C (second compound 3.16 µM, first compound 0.03 µM): 10.8% | viability, T/C (second compound 3.16 µM, first compound 0.0949 µM): 7.02% | viability, T/C (second compound 3.16 µM, first compound 0.3 µM): 6.36% | viability, T/C (second compound 3.16 µM, first compound 0.949 µM): 6.4% | viability, T/C (second compound 3.16 µM, first compound 3 µM): 4.96% | viability, T/C (second compound 10 µM, first compound 0.00949 µM): 21.8% | viability, T/C (second compound 10 µM, first compound 0.03 µM): 8.01% | viability, T/C (second compound 10 µM, first compound 0.0949 µM): 6.35% | viability, T/C (second compound 10 µM, first compound 0.3 µM): 5.6% | viability, T/C (second compound 10 µM, first compound 0.949 µM): 7.72% | viability, T/C (second compound 10 µM, first compound 3 µM): 5.68%

Nc1ccn(C2OC(CO)C(O)C2(F)F)c(=O)n1 (centres undefined) + COC1C(OC(N)=O)C(O)C(Oc2ccc3c(O)c(NC(=O)c4ccc(O)c(CC=C(C)C)c4)c(=O)oc3c2C)OC1(C)C
IC50 (second compound 0.0316 µM): < 31.6 nM | IC50 (second compound 0.1 µM): < 31.6 nM | IC50 (second compound 0.316 µM): < 31.6 nM | IC50 (second compound 1 µM): < 31.6 nM | IC50 (second compound 3.16 µM): < 31.6 nM | IC50 (second compound 10 µM): < 31.6 nM | viability, T/C (second compound 0.0316 µM, first compound 0.0316 µM): 7.44% | viability, T/C (second compound 0.0316 µM, first compound 0.1 µM): 5.74% | viability, T/C (second compound 0.0316 µM, first compound 0.316 µM): 6.22% | viability, T/C (second compound 0.0316 µM, first compound 1 µM): 6.52% | viability, T/C (second compound 0.0316 µM, first compound 3.16 µM): 5.93% | viability, T/C (second compound 0.0316 µM, first compound 10 µM): 5.3% | viability, T/C (second compound 0.1 µM, first compound 0.0316 µM): 7.07% | viability, T/C (second compound 0.1 µM, first compound 0.1 µM): 5.49% | viability, T/C (second compound 0.1 µM, first compound 0.316 µM): 6.25% | viability, T/C (second compound 0.1 µM, first compound 1 µM): 6.16% | viability, T/C (second compound 0.1 µM, first compound 3.16 µM): 7.16% | viability, T/C (second compound 0.1 µM, first compound 10 µM): 5.7% | viability, T/C (second compound 0.316 µM, first compound 0.0316 µM): 6.61% | viability, T/C (second compound 0.316 µM, first compound 0.1 µM): 5.95% | viability, T/C (second compound 0.316 µM, first compound 0.316 µM): 6.28% | viability, T/C (second compound 0.316 µM, first compound 1 µM): 6.18% | viability, T/C (second compound 0.316 µM, first compound 3.16 µM): 6.62% | viability, T/C (second compound 0.316 µM, first compound 10 µM): 5.63% | viability, T/C (second compound 1 µM, first compound 0.0316 µM): 6.65% | viability, T/C (second compound 1 µM, first compound 0.1 µM): 5.29% | viability, T/C (second compound 1 µM, first compound 0.316 µM): 5.98% | viability, T/C (second compound 1 µM, first compound 1 µM): 6.8% | viability, T/C (second compound 1 µM, first compound 3.16 µM): 6.08% | viability, T/C (second compound 1 µM, first compound 10 µM): 5.74% | viability, T/C (second compound 3.16 µM, first compound 0.0316 µM): 5.98% | viability, T/C (second compound 3.16 µM, first compound 0.1 µM): 5.52% | viability, T/C (second compound 3.16 µM, first compound 0.316 µM): 5.91% | viability, T/C (second compound 3.16 µM, first compound 1 µM): 5.81% | viability, T/C (second compound 3.16 µM, first compound 3.16 µM): 7.8% | viability, T/C (second compound 3.16 µM, first compound 10 µM): 5.79% | viability, T/C (second compound 10 µM, first compound 0.0316 µM): 6.27% | viability, T/C (second compound 10 µM, first compound 0.1 µM): 5.86% | viability, T/C (second compound 10 µM, first compound 0.316 µM): 6.51% | viability, T/C (second compound 10 µM, first compound 1 µM): 6.65% | viability, T/C (second compound 10 µM, first compound 3.16 µM): 7.8% | viability, T/C (second compound 10 µM, first compound 10 µM): 5.54%
